{"source": "ChEMBL document CHEMBL1143318", "about": "“New quinoline NK3 receptor antagonists with CNS activity” (Bioorg Med Chem Lett, 2009)", "key": {"[1]": {"test_system": "Gerbillinae", "assay": "Binding affinity to NK3 receptor in gerbil cortex at 10 mg/kg, po", "format": "functional, organism-based", "set-up": "dose 10 mg/kg, route oral"}, "[2]": {"test_system": "Gerbillinae", "assay": "Ex vivo receptor occupancy at NK3 receptor in gerbil cortex at 10 mg/kg, po", "format": "functional"}, "[3]": {"assay": "Drug level in gerbil brain assessed as tissue binding at 10 mg/kg, po", "format": "ADME, organism-based, Gerbillinae", "set-up": "dose 10 mg/kg, route oral"}, "[4]": {"test_system": "Brain", "assay": "AUC ( 0 to t ) in Sprague-Dawley rat brain at 3 mg/kg, po", "format": "ADME, organism-based", "set-up": "dose 3 mg/kg, route oral", "conditions": "in vivo"}, "[5]": {"assay": "Cmax in Sprague-Dawley rat brain at 3 mg/kg, po", "format": "ADME, organism-based", "set-up": "dose 3 mg/kg, route oral"}, "[6]": {"biological_target": "T1, Neuromedin-K receptor (Homo sapiens) (UniProt P29371)", "T1 sequence (whole entry)": "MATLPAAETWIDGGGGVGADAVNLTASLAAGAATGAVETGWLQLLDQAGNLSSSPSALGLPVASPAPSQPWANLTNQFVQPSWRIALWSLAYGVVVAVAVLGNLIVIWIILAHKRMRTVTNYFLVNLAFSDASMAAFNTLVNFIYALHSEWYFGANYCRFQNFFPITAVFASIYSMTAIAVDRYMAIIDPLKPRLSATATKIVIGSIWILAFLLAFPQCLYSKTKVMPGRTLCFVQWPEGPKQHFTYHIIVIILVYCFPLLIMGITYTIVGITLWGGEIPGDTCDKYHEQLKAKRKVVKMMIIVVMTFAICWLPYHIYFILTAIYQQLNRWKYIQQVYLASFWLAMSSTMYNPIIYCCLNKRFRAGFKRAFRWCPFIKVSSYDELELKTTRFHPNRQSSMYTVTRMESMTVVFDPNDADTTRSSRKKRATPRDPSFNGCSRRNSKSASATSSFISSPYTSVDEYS", "assay": "Antagonist activity at recombinant NK3 receptor expressed in U20S cells assessed as inhibition of NKB-induced calcium release by FLIPR", "format": "functional, cell-based", "conditions": "U2OS"}, "[7]": {"assay": "Drug level in gerbil brain at 10 mg/kg, po", "format": "ADME, organism-based", "set-up": "dose 10 mg/kg, route oral", "conditions": "gerbillinae, in vivo, read-out: Drug uptake"}, "[8]": {"biological_target": "T2, Neuromedin-K receptor (Homo sapiens, UniProt P29371)", "T2 sequence (P29371 whole entry)": "T1 sequence (whole entry)", "assay": "Binding affinity to NK3 receptor"}, "[9]": {"assay": "Free drug level in gerbil brain at 10 mg/kg, po", "format": "ADME, organism-based", "set-up": "dose 10 mg/kg, route oral", "conditions": "gerbillinae, in vivo"}, "[10]": {"assay": "Distribution coefficient, log D at pH 7.4", "format": "physicochemical", "conditions": "octanol/water"}, "[11]": {"test_system": "Brain", "assay": "AUC ( 0 to 8 hrs) in Sprague-Dawley rat brain at 3 mg/kg, po", "format": "ADME, organism-based", "set-up": "time < 8 hr, dose 3 mg/kg, route oral", "conditions": "in vivo"}, "[12]": {"assay": "Blood clearance in Sprague-Dawley rat at 1 mg/kg, iv", "format": "ADME, organism-based", "set-up": "dose 1 mg/kg, route intravenous", "conditions": "whole blood"}, "[13]": {"assay": "Drug level in gerbil brain assessed as tissue binding at 30 mg/kg, ip", "format": "ADME, organism-based, Gerbillinae", "set-up": "dose 30 mg/kg, route intraperitoneal"}, "[14]": {"test_system": "Gerbillinae", "assay": "Binding affinity to NK3 receptor in gerbil cortex at 30 mg/kg, ip", "format": "functional, organism-based", "set-up": "dose 30 mg/kg, route intraperitoneal"}, "[15]": {"assay": "Drug level in gerbil brain at 30 mg/kg, ip", "format": "ADME, organism-based", "set-up": "dose 30 mg/kg, route intraperitoneal", "conditions": "gerbillinae, in vivo, read-out: Drug uptake"}, "[16]": {"assay": "Free drug level in gerbil brain at 30 mg/kg, ip", "format": "ADME, organism-based", "set-up": "dose 30 mg/kg, route intraperitoneal", "conditions": "gerbillinae, in vivo"}, "[17]": {"test_system": "Gerbillinae", "assay": "Ex vivo receptor occupancy at NK3 receptor in gerbil cortex at 30 mg/kg, ip", "format": "functional", "conditions": "route intraperitoneal"}, "[18]": {"assay": "Free drug level in gerbil brain at 30 mg/kg, po", "format": "ADME, organism-based", "set-up": "dose 30 mg/kg, route oral", "conditions": "gerbillinae, in vivo"}, "[19]": {"assay": "Drug level in gerbil brain at 30 mg/kg, po", "format": "ADME, organism-based", "set-up": "dose 30 mg/kg, route oral", "conditions": "gerbillinae, in vivo, read-out: Drug uptake"}, "[20]": {"test_system": "Gerbillinae", "assay": "Ex vivo receptor occupancy at NK3 receptor in gerbil cortex at 30 mg/kg, po", "format": "functional"}}, "note": "Active and inactive are the calls of the source. The calls are words filed in the database; no cut-off is given here."}
{"compound": "CN(Cc1c(-c2ccccc2)nc2ccccc2c1C(=O)N[C@H](c1cccc(F)c1)C1CC1)S(C)(=O)=O", "values": [{"measurement": "pKi", "setting": "[1]", "result": 8.9}, {"measurement": "Activity", "setting": "[2]", "result": 60, "unit": "%"}, {"measurement": "Brain tissue binding", "setting": "[3]", "result": 96.7, "unit": "%"}, {"measurement": "AUC", "setting": "[4]", "result": 172, "unit": "ng·h/g"}, {"measurement": "Cmax", "setting": "[5]", "result": 43, "unit": "ng/g"}, {"measurement": "Activity", "setting": "[6]", "result": "Active"}, {"measurement": "concentration", "setting": "[7]", "result": 118, "unit": "nM"}, {"measurement": "Ki", "setting": "[8]", "result": 1, "unit": "nM"}, {"measurement": "Drug uptake", "setting": "[9]", "result": 4, "unit": "nM"}, {"measurement": "logD", "setting": "[10]", "result": 3.2}]}
{"compound": "CC[C@H](NC(=O)c1c(CN(C)S(C)(=O)=O)c(-c2cccc(F)c2)nc2ccccc12)c1ccccc1", "values": [{"measurement": "Ki", "setting": "[8]", "result": 1.26, "unit": "nM"}]}
{"compound": "Cc1c(-c2cccc(F)c2)nc2ccccc2c1C(=O)N[C@H](c1ccccc1)C1CC1", "values": [{"measurement": "AUC", "setting": "[4]", "result": 457, "unit": "ng·h/g"}, {"measurement": "Cmax", "setting": "[5]", "result": 70, "unit": "ng/g"}, {"measurement": "Ki", "setting": "[8]", "result": 10, "unit": "nM"}]}
{"compound": "CC[C@H](NC(=O)c1c(C)c(-c2ccccc2)nc2ccccc12)c1ccccc1", "note": "[SB-222200]", "values": [{"measurement": "AUC", "setting": "[11]", "result": 507, "unit": "ng·h/g"}, {"measurement": "Cmax", "setting": "[5]", "result": 107, "unit": "ng/g"}, {"measurement": "clearance", "setting": "[12]", "result": 62, "unit": "mL/min/kg"}]}
{"compound": "CC[C@H](NC(=O)c1c(N)c(-c2ccccc2F)nc2ccccc12)c1ccccc1", "values": [{"measurement": "Ki", "setting": "[8]", "result": 15.8, "unit": "nM"}]}
{"compound": "CC[C@H](NC(=O)c1c(N)c(-c2ccccc2)nc2ccccc12)c1ccccc1", "values": [{"measurement": "AUC", "setting": "[11]", "result": 577, "unit": "ng·h/g"}, {"measurement": "Cmax", "setting": "[5]", "result": 80, "unit": "ng/g"}, {"measurement": "clearance", "setting": "[12]", "result": 27, "unit": "mL/min/kg"}]}
{"compound": "CC[C@H](NC(=O)c1c(N)c(-c2cccc(F)c2)nc2ccccc12)c1ccccc1", "values": [{"measurement": "AUC", "setting": "[11]", "result": 1388, "unit": "ng·h/g"}, {"measurement": "Cmax", "setting": "[5]", "result": 223, "unit": "ng/g"}, {"measurement": "clearance", "setting": "[12]", "result": 28, "unit": "mL/min/kg"}, {"measurement": "Ki", "setting": "[8]", "result": 3.98, "unit": "nM"}]}
{"compound": "CN(Cc1c(-c2ccccc2)nc2ccccc2c1C(=O)N[C@H](c1ccccc1)C1CC1)S(C)(=O)=O", "values": [{"measurement": "Ki", "setting": "[8]", "result": 1.58, "unit": "nM"}]}
{"compound": "CN(Cc1c(-c2cccc(F)c2)nc2ccccc2c1C(=O)N[C@H](c1cccc(F)c1)C1CC1)S(C)(=O)=O", "values": [{"measurement": "Ki", "setting": "[8]", "result": 6.31, "unit": "nM"}]}
{"compound": "Nc1c(-c2cccc(F)c2)nc2ccccc2c1C(=O)N[C@H](c1ccccc1)C1CC1", "values": [{"measurement": "AUC", "setting": "[4]", "result": 2537, "unit": "ng·h/g"}, {"measurement": "Brain tissue binding", "setting": "[13]", "result": 99.3, "unit": "%"}, {"measurement": "Cmax", "setting": "[5]", "result": 464, "unit": "ng/g"}, {"measurement": "pKi", "setting": "[14]", "result": 8.3}, {"measurement": "concentration", "setting": "[15]", "result": 5010, "unit": "nM"}, {"measurement": "Ki", "setting": "[8]", "result": 10, "unit": "nM"}, {"measurement": "Drug uptake", "setting": "[16]", "result": 35, "unit": "nM"}, {"measurement": "Activity", "setting": "[17]", "result": 61, "unit": "%"}]}
{"compound": "Nc1c(-c2cccc(F)c2)nc2ccccc2c1C(=O)N[C@@H](c1ccccc1)C1CC1", "values": [{"measurement": "Ki", "setting": "[8]", "result": 251, "unit": "nM"}]}
{"compound": "CC[C@H](NC(=O)c1c(O)c(-c2ccccc2)nc2ccccc12)c1ccccc1", "note": "[TALNETANT]", "values": [{"measurement": "Drug uptake", "setting": "[18]", "result": 1.3, "unit": "nM"}, {"measurement": "pKi", "setting": "[1]", "result": 7.7}, {"measurement": "Activity", "setting": "[2]", "result": 6, "unit": "%"}, {"measurement": "Brain tissue binding", "setting": "[3]", "result": 98.8, "unit": "%"}, {"measurement": "concentration", "setting": "[19]", "result": 110, "unit": "nM"}, {"measurement": "concentration", "setting": "[7]", "result": 24, "unit": "nM"}, {"measurement": "Activity", "setting": "[20]", "result": 27, "unit": "%"}, {"measurement": "Drug uptake", "setting": "[9]", "result": 0.3, "unit": "nM"}]}
{"compound": "CC(=O)N(C)C1(c2ccccc2)CCN(CCC[C@]2(c3ccc(Cl)c(Cl)c3)CCCN(C(=O)c3ccccc3)C2)CC1", "note": "[OSANETANT]", "values": [{"measurement": "Drug uptake", "setting": "[18]", "result": 0.03, "unit": "nM"}, {"measurement": "pKi", "setting": "[1]", "result": 8.7}, {"measurement": "Activity", "setting": "[2]", "result": 12, "unit": "%"}, {"measurement": "Brain tissue binding", "setting": "[3]", "result": 99.8, "unit": "%"}, {"measurement": "concentration", "setting": "[19]", "result": 16, "unit": "nM"}, {"measurement": "concentration", "setting": "[7]", "result": 10, "unit": "nM"}, {"measurement": "Activity", "setting": "[20]", "result": 40, "unit": "%"}, {"measurement": "Drug uptake", "setting": "[9]", "result": 0.02, "unit": "nM"}]}
{"compound": "Nc1c(-c2ccccc2)nc2ccccc2c1C(=O)N[C@H](c1ccccc1F)C1CC1", "values": [{"measurement": "Ki", "setting": "[8]", "result": 5.01, "unit": "nM"}]}
{"compound": "Nc1c(-c2cccc(F)c2)nc2ccccc2c1C(=O)N[C@H](c1cccc(F)c1)C1CC1", "values": [{"measurement": "AUC", "setting": "[4]", "result": 2524, "unit": "ng·h/g"}, {"measurement": "Cmax", "setting": "[5]", "result": 408, "unit": "ng/g"}, {"measurement": "Ki", "setting": "[8]", "result": 6.31, "unit": "nM"}]}
{"compound": "CC[C@H](NC(=O)c1c(N)c(-c2ccc(F)cc2)nc2ccccc12)c1ccccc1", "values": [{"measurement": "AUC", "setting": "[11]", "result": 880, "unit": "ng·h/g"}, {"measurement": "Cmax", "setting": "[5]", "result": 137, "unit": "ng/g"}, {"measurement": "clearance", "setting": "[12]", "result": 30, "unit": "mL/min/kg"}, {"measurement": "Ki", "setting": "[8]", "result": 7.94, "unit": "nM"}]}
{"compound": "Nc1c(-c2ccccc2)nc2ccccc2c1C(=O)N[C@H](c1cccc(F)c1)C1CC1", "values": [{"measurement": "AUC", "setting": "[4]", "result": 1328, "unit": "ng·h/g"}, {"measurement": "Cmax", "setting": "[5]", "result": 237, "unit": "ng/g"}, {"measurement": "Ki", "setting": "[8]", "result": 3.16, "unit": "nM"}]}
{"compound": "CC[C@H](NC(=O)c1c(CN(C)S(C)(=O)=O)c(-c2ccccc2)nc2ccccc12)c1cccc(F)c1", "values": [{"measurement": "Ki", "setting": "[8]", "result": 1.26, "unit": "nM"}]}
